We go through 25 compounds from patent publication EP0810221A1 (MITSUBISHI CHEMICAL CORPORATION, priority 1995, dated 1996).

One data set deals with IgG. Conditions: cited from earlier work.
The conditions of data set [1]: rats, osteoclasia accentuated by parathormone; cited from earlier work.
For a further data set, the system named is IgE. The following applies: cited from earlier work.
The next data set concerns the target T1, m-Calpain (Rattus norvegicus, UniProt Q07009).
T1 construct: m-Calpain was purified from brains of rats; from tissue; host or cells: rat brain
T1 sequence (Q07009 20-700 limits assumed): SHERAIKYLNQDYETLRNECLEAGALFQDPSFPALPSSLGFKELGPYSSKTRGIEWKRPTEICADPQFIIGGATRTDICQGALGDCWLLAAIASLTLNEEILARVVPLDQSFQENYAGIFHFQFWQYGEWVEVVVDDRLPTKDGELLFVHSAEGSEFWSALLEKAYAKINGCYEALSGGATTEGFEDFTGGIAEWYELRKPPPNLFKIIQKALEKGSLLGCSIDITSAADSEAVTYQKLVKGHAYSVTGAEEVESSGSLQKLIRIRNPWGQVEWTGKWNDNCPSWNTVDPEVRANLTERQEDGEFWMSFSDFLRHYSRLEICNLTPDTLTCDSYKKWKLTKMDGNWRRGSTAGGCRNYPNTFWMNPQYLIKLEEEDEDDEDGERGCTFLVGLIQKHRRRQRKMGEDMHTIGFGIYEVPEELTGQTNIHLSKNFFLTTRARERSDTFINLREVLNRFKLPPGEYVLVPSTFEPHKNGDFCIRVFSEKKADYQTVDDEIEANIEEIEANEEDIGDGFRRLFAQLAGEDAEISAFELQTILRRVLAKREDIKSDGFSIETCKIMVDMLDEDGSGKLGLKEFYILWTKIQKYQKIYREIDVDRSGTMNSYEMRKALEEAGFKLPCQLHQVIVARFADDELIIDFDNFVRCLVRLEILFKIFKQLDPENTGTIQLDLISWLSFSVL
T1 sequence (Q64537 1-270 partner): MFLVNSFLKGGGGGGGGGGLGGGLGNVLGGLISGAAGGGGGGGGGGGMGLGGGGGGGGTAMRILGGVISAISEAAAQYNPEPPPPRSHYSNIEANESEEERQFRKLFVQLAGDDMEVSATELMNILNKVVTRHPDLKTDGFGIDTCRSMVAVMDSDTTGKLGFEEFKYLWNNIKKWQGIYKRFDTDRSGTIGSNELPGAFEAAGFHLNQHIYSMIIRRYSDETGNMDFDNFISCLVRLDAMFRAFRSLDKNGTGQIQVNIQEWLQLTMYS
The data set is described as follows: Inhibitory activity against calpain (m-Calpain purified from brains of rats). Type of data set: biochemical. How it is done: m-Calpain was purified from brains of rats according to a method described in a literature (Journal of Biological Chemistry, Vol. 259, p. 3210, 1984), and the inhibitory activity was determined in a manner according to a published method (Journal of Biological Chemistry, Vol. 259, p. 12489, 1984).

Data set [2] deals with T2, cathepsin B (Sigma, C-6286) (Bos taurus, UniProt P07688).
T2 construct: purchased Sigma C-6286
The data set is described as follows: Inhibitory activity against cathepsin B. Type of data set: biochemical. Conditions: Inhibitory activity against cathepsin B (Table-5). How it is done: Inhibitory activity against cathepsin B (Sigma, C-6286) was determined according to a method described in a literature (Biochemical Journal, Vol. 201, p. 189, 1982).

A short description of data set [3]: Acute toxicity test, oral. The following applies: both sexes, rat, in vivo, orally administered, suspended in 0.5% aqueous CMC-Na, SD male and female rats, observed for seven days. From the text:
Compounds of the present invention was suspended in 0.5% aqueous solution of CMC-Na and the suspensions were orally administered to SD male and female rats.

In data set [4] the test system is experimental model of cataract. Conditions: cited from earlier work.
[5] abbreviates: Inhibitory activity against calpain (Table-6).
[6] abbreviates: Inhibitory activity against calpain (continuation of Table-6).

With `NC(N)=NCCCCNC(=O)[C@H](Cc1ccccc1)NC(=O)[C@H]1O[C@@H]1C(=O)O` [Estatin A], the “production of IgG” value in the data set with IgG is “does not affect”. Further, in data set [1], the hydroxyproline concentration result was “lowered” and the serum calcium concentration result was “lowered”. Also, the “production of IgE” value in the data set with IgE is recorded as “specifically suppresses”.
Consider `CC(C)C[C@H](NC(=O)c1cccc(F)c1)C(=O)N[C@H]1CCOC1O` (stereo partly drawn) [Example 41, (3S)-3-{(S)-2-(3-fluorobenzoylamino)-4-methylvalerylamino}-2-tetrahydrofuranol], for which the IC50 came out at 1150 nM against m-Calpain (setting [5]) and 870 nM in data set [2].
As to `CC(C)C[C@H](NC(=O)c1ccc(F)cc1)C(=O)N[C@H]1CCOC1O` (stereo partly drawn) [Example 42, (3S)-3-{(S)-2-(4-fluorobenzoylamino)-4-methylvalerylamino}-2-tetrahydrofuranol], the IC50 was 820 nM on m-Calpain (setting [5]) and 550 nM in data set [2].
For `CC(C)C[C@H](NC(=O)c1ccc(Cl)cc1)C(=O)N[C@H]1CCOC1O` (stereo partly drawn) [Example 43, (3S)-3-{(S)-2-(4-chlorobenzoylamino)-4-methylvalerylamino}-2-tetrahydrofuranol], in that order: 360 nM and 140 nM.
For `Cc1ccccc1C(=O)N[C@@H](CC(C)C)C(=O)N[C@H]1CCOC1O` (stereo partly drawn) [Example 44, (3S)-3-{(S)-4-methyl-2-(2-methylbenzoylamino)valerylamino}-2-tetrahydrofuranol], in that order: 580 nM and 1450 nM.
Regarding `Cc1cccc(C(=O)N[C@@H](CC(C)C)C(=O)N[C@H]2CCOC2O)c1` (stereo partly drawn) [Example 45, (3S)-3-{(S)-4-methyl-2-(3-methylbenzoylamino)valerylamino}-2-tetrahydrofuranol], the IC50 stood at 560 nM on m-Calpain (setting [5]) and 490 nM in data set [2].
For `Cc1ccc(C(=O)N[C@@H](CC(C)C)C(=O)N[C@H]2CCOC2O)cc1C` (stereo partly drawn) [Example 48, (3S)-3-{(S)-2-(3,4-dimethylbenzoylamino)-4-methylvalerylamino}-2-tetrahydrofuranol], in that order: 380 nM and 86 nM.
For `CCc1ccc(C(=O)N[C@@H](CC(C)C)C(=O)N[C@H]2CCOC2O)cc1` (stereo partly drawn) [Example 50, (3S)-3-{(S)-2-(4-ethylbenzoylamino)-4-methylvalerylamino}-2-tetrahydrofuranol] the same measures were 650 nM and 200 nM.
For `CC(C)C[C@H](NC(=O)c1ccc(C(F)(F)F)cc1)C(=O)N[C@H]1CCOC1O` (stereo partly drawn) [Example 51, (3S)-3-{(S)-4-methyl-2-(4-trifluoromethylbenzoylamino)valerylamino}-2-tetrahydrofuranol], in that order: 480 nM and 210 nM.
Consider `COc1ccc(C(=O)N[C@@H](CC(C)C)C(=O)N[C@H]2CCOC2O)cc1` (stereo partly drawn) [Example 53, (3S)-3-{(S)-2-(4-methoxybenzoylamino)-4-methylvalerylamino}-2-tetrahydrofuranol], for which the IC50 against m-Calpain (setting [5]) was determined as 670 nM; in data set [2] it was 150 nM.
With `COc1cccc(OC)c1C(=O)N[C@@H](CC(C)C)C(=O)N[C@H]1CCOC1O` (stereo partly drawn) [Example 55, (3S)-3-{(S)-2-(2,6-dimethoxybenzoylamino)-4-methylvalerylamino}-2-tetrahydrofuranol], the IC50 against m-Calpain (setting [5]) worked out at 840 nM; in data set [2], 1650 nM.
With `COc1cc(OC)cc(C(=O)N[C@@H](CC(C)C)C(=O)N[C@H]2CCOC2O)c1` (stereo partly drawn) [Example 56, (3S)-3-{(S)-2-(3,5-dimethoxybenzoylamino)-4-methylvalerylamino}-2-tetrahydrofuranol], the IC50 against m-Calpain (setting [5]) is 640 nM; in data set [2], 900 nM.
As to `CCOc1ccc(C(=O)N[C@@H](CC(C)C)C(=O)N[C@H]2CCOC2O)cc1` (stereo partly drawn) [Example 57, (3S)-3-{(S)-2-(4-ethoxybenzoylamino)-4-methylvalerylamino}-2-tetrahydrofuranol], the IC50 stood at 250 nM at m-Calpain (setting [6]) and 240 nM in data set [2].
Regarding `CC(C)C[C@H](NC(=O)c1ccc2c(c1)OCO2)C(=O)N[C@H]1CCOC1O` (stereo partly drawn) [Example 58, (3S)-3-{(S)-4-methyl-2-(3,4-methylenedioxybenzoylamino)valerylamino}-2-tetrahydrofuranol], the IC50 on m-Calpain (setting [6]) stood at 440 nM; in data set [2] it was 460 nM.
For `CC(C)C[C@H](NC(=O)c1cccc2ccccc12)C(=O)N[C@H]1CCOC1O` (stereo partly drawn) [Example 59, (3S)-3-{(S)-4-methyl-2-(1-naphthoylamino)valerylamino}-2-tetrahydrofuranol] the same measures were 400 nM and 800 nM.
As for `CC(C)C[C@H](NC(=O)c1ccc2ccccc2c1)C(=O)N[C@H]1CCOC1O` (stereo partly drawn) [Example 60, (3S)-3-{(S)-4-methyl-2-(2-naphthoylamino)valerylamino}-2-tetrahydrofuranol], the IC50 is 470 nM on m-Calpain (setting [6]) and 34 nM in data set [2].
For `CC(C)C[C@H](NC(=O)c1ccco1)C(=O)N[C@H]1CCOC1O` (stereo partly drawn) [Example 61, (3S)-3-{(S)-2-(2-furoylamino)-4-methylvalerylamino}-2-tetrahydrofuranol], in that order: 350 nM and 1200 nM.
For `CCc1cc(C(=O)N[C@@H](CC(C)C)C(=O)N[C@H]2CCOC2O)n(C)n1` (stereo partly drawn) [Example 62, (3S)-3-{(S)-2-(3-ethyl-1-methyl-5-pyrazole)carbonylamino-4-methylvalerylamino}-2-tetrahydrofuranol], in that order: 1000 nM and 500 nM.
For `COc1ccc(C=CC(=O)N[C@@H](CC(C)C)C(=O)N[C@H]2CCOC2O)cc1` (stereo partly drawn) [Example 65, (3S)-3-{(S)-2-(4-methoxycinnamoylamino)-4-methylvalerylamino}-2-tetrahydrofuranol], in that order: 700 nM and 190 nM.
Turning to `CC(C)C[C@H](NS(=O)(=O)c1cccc2ccccc12)C(=O)N[C@H]1CCOC1O` (stereo partly drawn) [Example 75, (3S)-3-{(S)-4-methyl-2-(1-naphtylsulfonylamino)valerylamino}-2-tetrahydrofuranol], the IC50 against m-Calpain (setting [6]) worked out at 380 nM; in data set [2], 2400 nM.
For `CC(C)C[C@H](NS(=O)(=O)c1cccnc1)C(=O)N[C@H]1CCOC1O` (stereo partly drawn) [Example 77, (3S)-3-{(S)-4-methyl-2-(3-pyridylsulfonylamino)valerylamino}-2-tetrahydrofuranol] the same measures were 1000 nM and 400 nM.
Turning to `CC(C)C[C@H](NC(=O)[C@H](CC(C)C)NS(=O)(=O)c1ccccc1)C(=O)N[C@H]1CCOC1O` (stereo partly drawn) [Example 87, (3S)-3-{(S)-2-((S)-4-methyl-2-phenylsulfonylaminovalerylamino)-4-methylvalerylamino}-2-tetrahydrofuranol], the values for the IC50 (on m-Calpain (setting [6]); in data set [2]) were 780 nM and 1300 nM, respectively.
In turn, `CC(=O)O[C@@H]1OCC[C@@H]1NC(=O)[C@H](CC(C)C)NC(=O)c1ccccc1F` [Example 96, (2S,3S)-2-acetoxy-3-{(S)-2-(2-fluorobenzoylamino)-4-methylvalerylamino}tetrahydrofuran] showed an LD50 at 7 days in data set [3] of less than 2000 mg/kg.
`CC(=O)O[C@@H]1OCC[C@@H]1NC(=O)[C@H](CC(C)C)NS(=O)(=O)c1ccc(C)cc1` [Example 106, (2S,3S)-2-acetoxy-3-{(S)-4-methyl-2-(4-methylphenylsulfonylamino)valerylamino}tetrahydrofuran] registered an LD50 at 7 days in data set [3] of less than 2000 mg/kg.
On to `CC(C)C[C@H](NC(=O)[C@H]1O[C@@H]1C(=O)O)C(=O)NCCCCN=C(N)N` [Example E-64, E-64], for which, in data set [1], the hydroxyproline concentration result is on record as “lowered” and the serum calcium concentration result is on record as “lowered”. Further, the “efficacy in an experimental model of cataract” value in data set [4] is on record as “effective”.

For orientation: IC50 means the midpoint of a concentration-inhibition curve. Low readings indicate higher potency, high ones lower potency. One may read the LD50 as the dose at which mortality reaches 50%. The low end stands for a more toxic substance, the high end for a less toxic substance.
